Results reported in ChEMBL document CHEMBL2331421, “Amino acid derived quinazolines as Rock/PKA inhibitors” (Bioorg Med Chem Lett, 2013).

Assays:
[1] = Inhibition of PKA (unknown origin); parameters: species or system Homo sapiens
[2] = molecular target: Rho-associated protein kinase 2 (Homo sapiens, UniProt O75116); experiment: Inhibition of human recombinant 6-His-tagged ROCK2 expressed in baculovirus-infected Sf9 cells using LCB-AKRRRLSSLRA-NH2 as substrate after 25 mins by TR-FRET assay
[3] = molecular target: Mitogen-activated protein kinase 8 (Homo sapiens, UniProt P45983); experiment: Inhibition of JNK1 (unknown origin)
[4] = molecular target: Mitogen-activated protein kinase 9 (Homo sapiens, UniProt P45984); experiment: Inhibition of JNK2 (unknown origin)
[5] = Half life in human liver microsomes; type: ADME, Microsome
[6] = molecular target: Serine/threonine-protein kinase MRCK alpha (Homo sapiens, UniProt Q5VT25); experiment: Inhibition of MRCKalpha (unknown origin)
[7] = molecular target: Mitogen-activated protein kinase 10 (Homo sapiens, UniProt P53779); experiment: Inhibition of JNK3 (unknown origin)
[8] = molecular target: Rho-associated protein kinase 1 (Homo sapiens, UniProt Q13464); experiment: Inhibition of ROCK1 (unknown origin)
[9] = molecular target: CYP2D6 (Homo sapiens, UniProt P10635); experiment: Inhibition of CYP2D6 (unknown origin) at 10 uM relative to control; type: ADME
[10] = molecular target: CYP3A4 (Homo sapiens, UniProt P08684); experiment: Inhibition of CYP3A4 (unknown origin) at 10 uM relative to control; type: ADME
[11] = molecular target: CYP2C9 (Homo sapiens, UniProt P11712); experiment: Inhibition of CYP2C9 (unknown origin) at 10 uM relative to control; type: ADME
[12] = Inhibition of ROCK in rat A7r5 cells assessed as inhibition of myosin light chain bisphosphorylation by Western blot analysis; type: cell-based
[13] = molecular target: Mitogen-activated protein kinase 14 (Homo sapiens, UniProt Q16539); experiment: Inhibition of p38alpha (unknown origin)
[14] = molecular target: T1, CYP1A2 (Homo sapiens, UniProt P05177); experiment: Inhibition of CYP1A2 (unknown origin) at 10 uM relative to control; type: ADME
T1 sequence (P05177 whole entry): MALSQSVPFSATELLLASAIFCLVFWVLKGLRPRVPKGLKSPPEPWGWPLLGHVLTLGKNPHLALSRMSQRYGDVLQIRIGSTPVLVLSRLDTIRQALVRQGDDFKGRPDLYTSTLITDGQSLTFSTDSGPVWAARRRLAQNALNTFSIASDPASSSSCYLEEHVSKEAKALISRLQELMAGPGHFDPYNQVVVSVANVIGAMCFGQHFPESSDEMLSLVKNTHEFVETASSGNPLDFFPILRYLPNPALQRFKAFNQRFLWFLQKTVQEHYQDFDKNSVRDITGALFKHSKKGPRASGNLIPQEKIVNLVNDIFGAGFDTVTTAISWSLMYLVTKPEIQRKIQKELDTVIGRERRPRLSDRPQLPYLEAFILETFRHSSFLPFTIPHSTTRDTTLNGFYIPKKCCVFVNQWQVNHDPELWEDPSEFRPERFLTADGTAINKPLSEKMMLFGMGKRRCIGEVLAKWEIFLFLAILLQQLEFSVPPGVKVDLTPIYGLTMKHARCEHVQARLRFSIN

Sequence of CYP2D6 (P10635 whole entry): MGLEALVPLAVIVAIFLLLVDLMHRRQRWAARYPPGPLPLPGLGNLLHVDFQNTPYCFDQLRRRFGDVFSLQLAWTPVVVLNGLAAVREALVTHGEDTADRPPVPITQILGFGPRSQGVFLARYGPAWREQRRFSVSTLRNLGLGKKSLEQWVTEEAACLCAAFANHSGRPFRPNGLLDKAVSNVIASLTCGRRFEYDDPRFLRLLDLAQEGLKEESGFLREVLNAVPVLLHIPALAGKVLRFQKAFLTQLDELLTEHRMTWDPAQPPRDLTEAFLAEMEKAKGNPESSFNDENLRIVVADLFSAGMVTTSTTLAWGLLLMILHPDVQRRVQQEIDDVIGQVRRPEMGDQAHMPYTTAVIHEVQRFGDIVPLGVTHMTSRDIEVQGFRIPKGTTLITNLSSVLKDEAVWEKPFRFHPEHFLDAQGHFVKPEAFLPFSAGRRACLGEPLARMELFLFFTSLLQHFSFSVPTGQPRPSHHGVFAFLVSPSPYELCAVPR
Sequence of Mitogen-activated protein kinase 8 (P45983 whole entry): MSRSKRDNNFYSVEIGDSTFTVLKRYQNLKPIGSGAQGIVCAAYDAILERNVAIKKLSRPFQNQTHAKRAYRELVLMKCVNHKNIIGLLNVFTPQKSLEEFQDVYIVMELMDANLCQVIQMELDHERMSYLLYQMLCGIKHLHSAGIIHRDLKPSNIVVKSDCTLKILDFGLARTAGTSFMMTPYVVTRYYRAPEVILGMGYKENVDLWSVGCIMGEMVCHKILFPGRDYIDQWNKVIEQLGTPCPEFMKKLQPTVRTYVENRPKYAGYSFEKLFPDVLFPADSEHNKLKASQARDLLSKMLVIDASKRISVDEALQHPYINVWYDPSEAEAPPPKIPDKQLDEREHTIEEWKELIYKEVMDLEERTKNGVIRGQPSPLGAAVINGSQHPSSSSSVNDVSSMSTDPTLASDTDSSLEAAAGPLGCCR
Sequence of CYP2C9 (P11712 whole entry): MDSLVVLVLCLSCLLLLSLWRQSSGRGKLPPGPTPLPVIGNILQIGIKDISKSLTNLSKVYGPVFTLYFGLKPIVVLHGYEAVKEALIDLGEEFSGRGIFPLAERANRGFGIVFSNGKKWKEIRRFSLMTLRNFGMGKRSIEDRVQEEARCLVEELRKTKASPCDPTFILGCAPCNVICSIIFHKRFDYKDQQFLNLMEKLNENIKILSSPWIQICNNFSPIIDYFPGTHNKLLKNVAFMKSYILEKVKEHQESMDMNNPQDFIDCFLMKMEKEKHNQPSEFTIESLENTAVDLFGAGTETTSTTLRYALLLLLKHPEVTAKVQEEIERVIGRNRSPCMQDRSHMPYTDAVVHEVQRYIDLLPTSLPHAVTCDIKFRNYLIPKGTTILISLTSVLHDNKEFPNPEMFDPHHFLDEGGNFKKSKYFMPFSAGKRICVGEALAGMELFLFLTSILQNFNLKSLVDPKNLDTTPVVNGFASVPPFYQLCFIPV
Sequence of CYP3A4 (P08684 whole entry): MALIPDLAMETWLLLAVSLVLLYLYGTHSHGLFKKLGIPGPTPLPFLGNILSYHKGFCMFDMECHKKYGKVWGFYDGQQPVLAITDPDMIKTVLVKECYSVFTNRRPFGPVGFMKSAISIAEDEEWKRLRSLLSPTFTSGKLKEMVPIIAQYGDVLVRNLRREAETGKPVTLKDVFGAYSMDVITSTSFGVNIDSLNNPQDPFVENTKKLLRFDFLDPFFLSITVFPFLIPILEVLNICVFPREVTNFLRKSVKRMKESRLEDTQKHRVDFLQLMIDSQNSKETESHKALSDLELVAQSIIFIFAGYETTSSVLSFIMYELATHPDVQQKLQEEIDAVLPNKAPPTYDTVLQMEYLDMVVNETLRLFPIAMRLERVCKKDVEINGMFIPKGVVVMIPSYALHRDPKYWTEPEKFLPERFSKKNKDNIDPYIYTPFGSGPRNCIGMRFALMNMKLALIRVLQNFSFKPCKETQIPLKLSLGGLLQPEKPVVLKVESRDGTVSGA
Sequence of Mitogen-activated protein kinase 9 (P45984 whole entry): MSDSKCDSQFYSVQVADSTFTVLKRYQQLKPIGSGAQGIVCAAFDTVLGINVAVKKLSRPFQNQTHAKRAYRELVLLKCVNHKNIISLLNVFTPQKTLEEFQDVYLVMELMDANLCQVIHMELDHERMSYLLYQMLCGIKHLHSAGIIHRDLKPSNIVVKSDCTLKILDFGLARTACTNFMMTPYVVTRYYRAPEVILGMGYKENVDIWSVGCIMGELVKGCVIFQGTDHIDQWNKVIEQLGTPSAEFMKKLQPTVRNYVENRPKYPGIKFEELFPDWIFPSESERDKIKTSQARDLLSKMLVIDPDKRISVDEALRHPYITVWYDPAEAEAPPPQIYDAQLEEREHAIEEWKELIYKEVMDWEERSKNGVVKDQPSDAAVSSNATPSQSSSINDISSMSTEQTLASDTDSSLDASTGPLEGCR
Sequence of Mitogen-activated protein kinase 10 (P53779 whole entry): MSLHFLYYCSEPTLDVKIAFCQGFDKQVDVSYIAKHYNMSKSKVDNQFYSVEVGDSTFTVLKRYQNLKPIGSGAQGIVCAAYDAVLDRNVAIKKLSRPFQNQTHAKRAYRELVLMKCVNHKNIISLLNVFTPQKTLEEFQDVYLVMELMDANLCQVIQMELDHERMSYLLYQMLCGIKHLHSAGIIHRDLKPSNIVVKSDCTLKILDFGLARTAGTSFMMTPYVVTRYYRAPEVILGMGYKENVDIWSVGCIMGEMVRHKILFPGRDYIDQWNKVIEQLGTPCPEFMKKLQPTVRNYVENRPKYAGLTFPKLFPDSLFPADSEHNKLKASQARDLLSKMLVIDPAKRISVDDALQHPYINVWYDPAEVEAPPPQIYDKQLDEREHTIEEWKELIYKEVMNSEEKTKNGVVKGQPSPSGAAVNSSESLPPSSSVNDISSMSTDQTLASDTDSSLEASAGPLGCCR
Sequence of Serine/threonine-protein kinase MRCK alpha (Q5VT25 whole entry): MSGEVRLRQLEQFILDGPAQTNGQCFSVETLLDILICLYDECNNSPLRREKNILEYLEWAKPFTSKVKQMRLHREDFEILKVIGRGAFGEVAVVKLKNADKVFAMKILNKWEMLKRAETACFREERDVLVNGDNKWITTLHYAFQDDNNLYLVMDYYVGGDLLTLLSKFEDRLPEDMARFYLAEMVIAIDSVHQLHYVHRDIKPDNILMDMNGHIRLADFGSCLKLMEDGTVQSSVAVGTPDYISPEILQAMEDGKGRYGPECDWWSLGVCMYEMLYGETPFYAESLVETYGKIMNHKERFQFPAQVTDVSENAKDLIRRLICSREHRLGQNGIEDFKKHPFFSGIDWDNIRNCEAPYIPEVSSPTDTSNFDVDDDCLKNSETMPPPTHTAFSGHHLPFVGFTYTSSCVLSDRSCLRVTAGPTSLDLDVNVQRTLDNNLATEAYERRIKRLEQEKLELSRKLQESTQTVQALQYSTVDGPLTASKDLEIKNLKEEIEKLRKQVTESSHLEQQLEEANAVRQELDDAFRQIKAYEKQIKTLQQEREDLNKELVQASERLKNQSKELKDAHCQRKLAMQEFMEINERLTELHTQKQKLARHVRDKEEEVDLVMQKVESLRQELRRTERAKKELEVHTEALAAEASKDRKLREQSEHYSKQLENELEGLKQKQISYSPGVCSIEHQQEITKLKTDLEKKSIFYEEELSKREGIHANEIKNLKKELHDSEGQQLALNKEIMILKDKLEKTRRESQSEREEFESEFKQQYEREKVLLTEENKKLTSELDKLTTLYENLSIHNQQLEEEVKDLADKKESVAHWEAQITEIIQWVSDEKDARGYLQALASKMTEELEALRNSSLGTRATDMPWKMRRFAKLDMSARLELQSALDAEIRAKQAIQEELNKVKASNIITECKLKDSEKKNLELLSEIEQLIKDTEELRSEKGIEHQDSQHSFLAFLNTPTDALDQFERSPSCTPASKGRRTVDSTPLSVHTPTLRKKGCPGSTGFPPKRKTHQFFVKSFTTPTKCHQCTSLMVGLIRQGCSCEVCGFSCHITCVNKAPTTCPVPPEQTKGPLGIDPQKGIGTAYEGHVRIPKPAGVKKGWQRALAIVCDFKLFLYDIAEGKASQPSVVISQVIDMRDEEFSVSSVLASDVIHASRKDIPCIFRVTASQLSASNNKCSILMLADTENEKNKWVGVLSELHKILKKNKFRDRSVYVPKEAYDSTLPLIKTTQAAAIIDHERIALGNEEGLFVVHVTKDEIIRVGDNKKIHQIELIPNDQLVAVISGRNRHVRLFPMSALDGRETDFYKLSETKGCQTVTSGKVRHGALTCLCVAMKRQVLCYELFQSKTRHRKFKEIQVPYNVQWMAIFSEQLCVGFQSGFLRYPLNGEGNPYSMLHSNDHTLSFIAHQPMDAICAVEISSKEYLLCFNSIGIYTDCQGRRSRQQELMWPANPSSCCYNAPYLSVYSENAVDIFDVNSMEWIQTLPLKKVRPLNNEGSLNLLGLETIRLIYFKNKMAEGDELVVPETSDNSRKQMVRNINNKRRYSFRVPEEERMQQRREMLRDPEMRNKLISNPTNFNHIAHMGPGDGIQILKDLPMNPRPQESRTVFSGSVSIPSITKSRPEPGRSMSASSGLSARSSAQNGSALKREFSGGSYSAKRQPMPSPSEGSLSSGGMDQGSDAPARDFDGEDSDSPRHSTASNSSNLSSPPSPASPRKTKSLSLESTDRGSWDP
Sequence of Mitogen-activated protein kinase 14 (Q16539 whole entry): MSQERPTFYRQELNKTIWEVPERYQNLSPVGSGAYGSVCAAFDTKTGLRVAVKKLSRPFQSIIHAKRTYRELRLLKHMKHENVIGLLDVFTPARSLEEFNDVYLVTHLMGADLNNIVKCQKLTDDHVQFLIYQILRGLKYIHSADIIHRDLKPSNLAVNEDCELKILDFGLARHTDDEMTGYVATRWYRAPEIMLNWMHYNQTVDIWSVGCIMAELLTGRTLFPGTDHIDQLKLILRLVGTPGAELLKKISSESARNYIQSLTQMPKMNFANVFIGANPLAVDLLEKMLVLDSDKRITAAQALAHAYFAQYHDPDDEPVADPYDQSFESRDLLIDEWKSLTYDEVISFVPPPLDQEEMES

NCc1cccc(C(=O)NC(c2ccc(Cl)cc2)c2nc3ccc(-c4cn[nH]c4)cc3c(=O)[nH]2)c1 (configuration not stated)
IC50 [1]: 28 nM | IC50 [2]: 20 nM

NC(c1cccc(Cl)c1)c1nc2ccc(-c3cn[nH]c3)cc2c(=O)[nH]1 (configuration not stated)
IC50 [3]: > 1000 nM | IC50 [4]: > 1000 nM | IC50 [2]: 13 nM | half-life [5]: 46 min | IC50 [6]: > 1000 nM | IC50 [7]: > 1000 nM | IC50 [8]: 15 nM | inhibition at 10 µM [9]: 89% | inhibition at 10 µM [10]: 75% | inhibition at 10 µM [11]: 84% | IC50 [12]: 91 nM | IC50 [13]: > 1000 nM | inhibition at 10 µM [14]: 18%

N[C@@H](Cc1ccccc1)c1nc2ccc(-c3cn[nH]c3)cc2c(=O)[nH]1
IC50 [1]: 7 nM | IC50 [2]: 12 nM

COc1ccc(C(N)c2nc3ccc(-c4cn[nH]c4)cc3c(=O)[nH]2)cc1 (configuration not stated)
IC50 [3]: > 1000 nM | IC50 [4]: > 1000 nM | IC50 [1]: 20 nM | IC50 [2]: 43 nM | half-life [5]: 64 min | IC50 [6]: > 1000 nM | IC50 [7]: > 1000 nM | IC50 [8]: 48 nM | inhibition at 10 µM [9]: 36% | inhibition at 10 µM [10]: 40% | inhibition at 10 µM [11]: 37% | IC50 [13]: > 1000 nM | inhibition at 10 µM [14]: -1%

Cc1n[nH]cc1-c1ccc2nc([C@@H]3CNC[C@H]3c3ccccc3)[nH]c(=O)c2c1
IC50 [1]: 7 nM | IC50 [2]: 7 nM

O=c1[nH]c([C@@H]2CNC[C@H]2c2ccc(F)cc2)nc2ccc(-c3cn[nH]c3)cc12
IC50 [1]: 7 nM | IC50 [2]: 2 nM

N[C@H](Cc1cccc(Cl)c1)c1nc2ccc(-c3cn[nH]c3)cc2c(=O)[nH]1
IC50 [1]: 6 nM | IC50 [2]: 13 nM

COc1ccc([C@@H]2CN(Cc3ccccc3)C[C@H]2c2nc3ccc(-c4cn[nH]c4)cc3c(=O)[nH]2)cc1
IC50 [1]: 117 nM | IC50 [2]: 88 nM

N[C@H](Cc1ccc(F)cc1)c1nc2ccc(-c3cn[nH]c3)cc2c(=O)[nH]1
IC50 [3]: > 1000 nM | IC50 [4]: > 1000 nM | IC50 [1]: 17 nM | IC50 [2]: 8 nM | half-life [5]: 65 min | IC50 [6]: > 1000 nM | IC50 [7]: > 1000 nM | IC50 [8]: 8 nM | inhibition at 10 µM [9]: 89% | inhibition at 10 µM [10]: 37% | inhibition at 10 µM [11]: 36% | IC50 [13]: > 1000 nM | inhibition at 10 µM [14]: 19%

N[C@@H](Cc1ccccc1)c1nc2ccc(-c3ccncc3)cc2c(=O)[nH]1
IC50 [1]: 49 nM | IC50 [2]: 52 nM

Nc1nccc(-c2ccc3nc([C@@H]4CNC[C@H]4c4ccccc4)[nH]c(=O)c3c2)n1
IC50 [1]: 10 nM | IC50 [2]: 6 nM

O=c1[nH]c([C@@H]2CNC[C@H]2c2ccccc2)nc2ccc(-c3ccncc3)cc12
IC50 [1]: 29 nM | IC50 [2]: 23 nM

N[C@@H](Cc1ccc(Cl)cc1)c1nc2ccc(-c3cn[nH]c3)cc2c(=O)[nH]1
IC50 [3]: > 1000 nM | IC50 [4]: > 1000 nM | IC50 [1]: 7 nM | IC50 [2]: 6 nM | half-life [5]: 47 min | IC50 [6]: > 1000 nM | IC50 [7]: > 1000 nM | inhibition at 10 µM [9]: 78% | inhibition at 10 µM [10]: 42% | inhibition at 10 µM [11]: 54% | IC50 [12]: 300 nM | IC50 [13]: > 1000 nM | inhibition at 10 µM [14]: 51%

C[N+]1(C)C[C@@H](c2ccccc2)[C@H](c2nc3ccc(-c4cn[nH]c4)cc3c(=O)[nH]2)C1
IC50 [1]: 23 nM | IC50 [2]: 4 nM

CCN[C@H](Cc1ccc(Cl)cc1)c1nc2ccc(-c3cn[nH]c3)cc2c(=O)[nH]1
IC50 [1]: 17 nM | IC50 [2]: 14 nM

N[C@H](Cc1cccc(F)c1)c1nc2ccc(-c3cn[nH]c3)cc2c(=O)[nH]1
IC50 [1]: 9 nM | IC50 [2]: 10 nM

NCCC(=O)NC(c1ccc(Cl)cc1)c1nc2ccc(-c3cn[nH]c3)cc2c(=O)[nH]1 (configuration not stated)
IC50 [1]: 21 nM | IC50 [2]: 6 nM

CN(C)CCNc1nc([C@@H]2CNC[C@H]2c2ccc(F)cc2)nc2ccc(-c3cn[nH]c3)cc12
IC50 [1]: 884 nM | IC50 [2]: 371 nM

O=c1[nH]c([C@@H]2CN(Cc3ccccc3)C[C@H]2c2cccc(F)c2)nc2ccc(-c3cn[nH]c3)cc12
IC50 [1]: 423 nM | IC50 [2]: 225 nM

COc1ccc(C[C@H](N)c2nc3ccc(-c4cn[nH]c4)cc3c(=O)[nH]2)cc1
IC50 [3]: > 1000 nM | IC50 [4]: > 1000 nM | IC50 [1]: 8 nM | IC50 [2]: 4 nM | half-life [5]: 21 min | IC50 [6]: > 1000 nM | IC50 [7]: > 1000 nM | IC50 [8]: 16 nM | inhibition at 10 µM [9]: 76% | inhibition at 10 µM [10]: 53% | inhibition at 10 µM [11]: 52% | IC50 [13]: > 1000 nM | inhibition at 10 µM [14]: 10%

COc1cc(-c2cn[nH]c2)cc2c(=O)[nH]c([C@@H](N)Cc3cccc(F)c3)nc12
IC50 [1]: 26 nM | IC50 [2]: 8 nM
